Measured values as given in US20130129713A1, “METHOD OF ANTIGEN LOADING FOR IMMUNOTHERAPY” (IEO - ISTITUTO EUROPEO DI ONCOLOGIA S.R.L., priority 2010, published 2013).

How the values were obtained:
[1] = system: gap junctions between B16 cells and DCs; experiment: FACS dye transfer assay, murine cells (calcein-AM from B16 to DDAO-labeled DCs); settings: co-culture in presence of heptanol (3.5 mM)
Protocol: B16 cells were infected or not with Salmonella, pulsed with the GJ-diffusible dye Calcein-AM and incubated with DDAO-labeled DCs, in the presence or absence of heptanol. One h later the % of cells double positive for DDAO and Calcein-AM, representing the DCs that received the dye from tumor cells, was evaluated by FACS (Black bars).
FACS assay murine cells. DCs were labeled with 10 μM of the dye 7-hydroxy-9H(I,3-dichloro-9,9-dimethylacridin-2-one) (DDAO, Molecular Probes) for 15 minutes at R.T. in the dark and then extensively washed with PBS. B16 cells were infected or not with Salmonella and after 24 hours were labeled with 0.5 μM calcein-acetoxymethylester (calcein-AM; Molecular Probes) in serum-free medium for 30 minutes at 37° C. and then co-cultured with DCs at a ratio of 2:1. Calcein transfer between tumor cells and DCs was evaluated by cytofluorimetry. The co-culture of B16/DCs was carried out in the presence or absence of (3.5 mM) Heptanol (Sigma).

[2] = system: GJs-dependent intercellular communication, SK-Mel-24 to Mo-DC; assay type: cell-based, human
B16-OVA cells / DCs = experiment: In vitro cross-presentation assay (K^bOVA on CD11c+ DCs); assay type: cell-based, murine
Protocol: B16 and B16-OVA cells alone or together with DCs were treated or not with Salmonella and 24 hours later were stained with 5 μM of Carboxyfluorescein Succinimidyl ester (CF SE) for 20 minutes at 37° C. in the dark and then washed with cold PBS. Where stated, B16 and B16-OVA cells were treated with 10 μM Lactacystin (Sigma) overnight. […] After 24 hours cross-presentation of OVA peptide by DCs was analyzed by cytofluorimetry on CD11c^+ cells using an antibody that recognizes the OVA SIINFEKL peptide in association with MHC I (anti K^bOVA, 25-D1.16).

[3] = system: SK-Mel24 and other target cell lines; experiment: CTL generation and cytotoxicity (DELFIA cytotoxicity kit); assay type: cell-based, human; settings: Mo-DC/SL-infected SK-Mel24 coculture in presence of Heptanol (3,5 mM)
Protocol: FIG. 24. SL-infected SK-Mel-24 loaded MoDC generate CTLs able to recognize epitopes shared among melanoma cells. CTL generated as described in materials and methods were tested for their antigen-specific cytotoxicity using DELFIA cytotoxicity kit. Target cells were: SK-Mel24, melanoma cell line, HLA negative cell line, HT29 (colon carcinoma).
Mo-DCs obtained from the same donor were loaded with SL-infected SK-Mel24 (SL-SK), and cultured, with purified CD8^+ T cells. Proliferating cells were expanded for 7-10 days in complete medium supplemented with 20 U/ml of rhIL-2. Cytotoxic properties of generated CTLs were tested against selected targets.
Purified CD8 T cells by magnetic cell sorting were cultured with MoDCs previously cocultured with infected or non-infected Sk-Mel24 in the presence or absence of 3,5 mM heptanol. After 24-48h cultures were supplemented with 20 U/ml of rhIL-2 and after 7-10 days CTLs were either subjected to a second round of stimulation or assayed for their cytotoxic activity. Melanoma specific cytotoxicity was measured by using DELFIA cytotoxicity Kit (Perkin Elmer) and lysosomal-associated membrane protein-1 (CD107a) mobilization was performed by using BD FastImmune CD107a reagent (BD Bioscience), according to manufacturer's instructions.

[4] = system: GJs dependent intercellular communication, Mel-04 to human MoDC; experiment: FACS dye transfer assay, human cells: Mel-04 to MoDC; assay type: cell-based; settings: co-culture in presence of heptanol (3.5 mM)
Text: FIG. 18. Salmonella infection upregulates GJs dependent intercellular communication in a melanoma-MoDC coculture model system. Human monocyte-derived DCs (MoDCs) were labeled with DDAO and then extensively washed.

[5] = system: GJs dependent intercellular communication between SK-Mel-24 cells; experiment: Dye transfer between SK-Mel-24 melanoma cells; assay type: cell-based, human; settings: in the presence of heptanol
Protocol: FIG. 20. Salmonella infection up-regulates GJs dependent intercellular communication in SK-Mel-24 melanoma cell line. In this experiment the dye transfer was performed from melanoma to melanoma cells (SK-Mel-24). The increase in dye transfer from Salmonella infected to non-infected SK-Mel-24 cells is clear as compared to that from non-infected to non-infected cells. The right panel represents the same experiment performed in the presence of Heptanol, an inhibitor of GJ dependent intercellular communication. Data are expressed as percentage of SK-Mel-24 calcein positive cells.

[6] = system: Connexin (Cx) 43 expression in B16 cells; experiment: Cx43 expression in B16 cells after infection or PAMP/IFN-g treatment (immunofluorescence, Western blot); assay type: cell-based, murine
Protocol: Single bacterial colonies were grown overnight and restarted the next day to reach an A600 nm=0.6 corresponding to 0.6×10^9 CFU/mL. Murine and human melanoma cells were incubated with bacteria for 2 h, at a ratio of 1:50 (cell/bacteria), in the appropriate medium without antibiotics. Cells were washed with PBS and incubated in medium supplemented with 50 μg/mL gentamicin for 12 or 24 h in order to kill extracellular bacteria, with or without IFN-g(100 U/ml).
B16 cells and DC1 DCs were plated in 6-well plates (2×10^5 cells/well) and grown for 18 h. Cells were incubated with PAMPs in complete medium with or without IFN-g(100 U/ml) for 24 hours. The PAMPs used were LPS (1 μg/ml, Sigma), flagellin (0.1 μg/ml, Alexis) and LTA (10 μg/ml, Sigma).
24 hour after infection or treatment with PAMPs, melanoma cells were scraped in ELB buffer (250 mM NaCl, 0.5% Nonidet P-40, 50 mM HEPES [pH 7.0], 5 mM EDTA) containing 1 mM dithiothreitol, 0.5 mM phenylmethylsulfonyl fluoride, and protease inhibitors. Cell lysates were run on SDS page and transferred on Immobilon PVDF membranes. Membranes were probed with a polyclonal rabbit-anti-Cx43 antibody (Sigma) or with a monoclonal mouse-anti-Cx43 antibody (Zymed) or with mouse-anti-vinculin antibody (Sigma) overnight at 4° C. and incubated with anti-mouse horseradish peroxidase-conjugated IgG (Calbiochem) or with anti-rabbit horseradish peroxidase-conjugated IgG (BioRad) antibodies for 1 h. Visualization was carried out with ECL (GE Healthcare). Bands were quantified by densitometry using NIH Image-based software Scion Image (Scion Corporation).
B16 cells were plated onto coverslips (5×10^4 cells/coverslip) and grown for 18 h. Cells were infected with Salmonella. After 24 hours the cells were fixed in 4% (w/v) paraformaldehyde in PBS for 15 min. Blocking and permeabilization were carried out incubating the cells in PBS, 3% (w/v) bovine serum albumin (BSA) and 0.1% (w/v) Triton X-100 for 20 min. The cells were then stained with polyclonal rabbit-anti-Cx43 primary antibody (Sigma, 1:2000) and with an anti-rabbit-Cy3-conjugated secondary antibody (Jackson ImmunoResearch laboratories, 1:400). Cell nuclei were stained with 4′,6-diamidino-2-phenylindole. Confocal microscopy was carried out using a Leica TCS-SP2 (Leica Microsystem).

[7] = B16 cells incubated with purified bacterial components, Western blot 24 h

CCCCCCCO [heptanol]
transfer of calcein from B16 cells to DCs [1]: completely abolished the transfer of calcein | calcein transfer from SK-Mel-24 to Mo-DC [2]: most of the calcein transfer was inhibited | presentation of OVA peptide (K^bOVA) by DCs (B16-OVA cells / DCs; infected B16-OVA + mature DCs 24 h, Heptanol (3.5 mM)): completely abolished the presentation of the peptide | cytotoxicity of generated CTLs against the specific target [3]: unable to lyse the specific target | calcein dye transfer from Mel-04 to MoDC [4]: capable of inhibiting the transfer | dye transfer from infected to non infected SK-Mel-24 cells [5]: inhibited

CC(=O)N[C@@H](CSC(=O)[C@]1([C@@H](O)C(C)C)NC(=O)[C@H](C)[C@@H]1O)C(=O)O [lactacystin]
DC surface exposure of the K^b-OVA complex (B16-OVA cells / DCs; B16-OVA pretreated with 10 μM Lactacystin overnight): prevented the DC surface exposure of the K^b-OVA complex

flagellin
Cx43 expression [6, 7]: same upregulation of Cx43

lipoteichoic acid [LTA]
Cx43 expression [6, 7]: same upregulation of Cx43

lypopolysaccharide [LPS]
Cx43 expression [6, 7]: same upregulation of Cx43

B1: IFN-g: inflammatory cytokine gamma-IFN (protein, UniProt P01579 24-161, looked up)
Interferon gamma: QDPYVKEAENLKKYFNAGHSDVADNGTLFLGILKNWKEESDRKIMQSQIVSFYFKLFKNFKDDQSIQKSVETIKEDMNVKFFNSNKKKRDDFEKLTNYSVTDLNVQRKAIHELIQVMAELSPAAKTGKRKRSQMLFRG
Cx43 expression ([6]; B16 cells, IFN-g alone (100 U/ml)): upregulated Cx43 | Cx43 expression, combination effect ([6]; B16 cells, IFN-g together with Salmonella or bacterial components): acted in synergy with the bacterial components
